Data taken from patent US20230123334A1, “AMINO LIPID COMPOUND, PREPARATION METHOD THEREFOR, AND APPLICATION THEREOF” (SHENZHEN SHENXIN BIOTECHNOLOGY CO., LTD., priority 2020, published 2023).

These compounds were tested on HEK293 cells (assay: Preliminary screening as DNA vectors, GFP transfection of HEK293 cells). Conditions: HEK293 cells; lipid/DOPE liposome with 75 ng plasmid DNA (psin-EGFP-IRES-Puro); number of cells expressing GFP divided by total number of nuclei (Hoechst).
Type: cell-based
Protocol: Cell line: HEK293 cells (ATCC CRL-1573™)
Medium: DMEM supplemented with 10% fetal bovine serum (Invitrogen)
Mode of screening: cell transfection on 96-well plates
Detection (readout): percentage of the number of GFP fluorescent cells relative to the total number of cells (the total number of cells was measured using nucleus dye Hoechst—see FIG. 2). Lipofectamine2000 (Invitrogen) was used as positive control, according to the manufacturer's instructions.
Method: an 8-channel pipette was used for sample addition. The contents shown were for a single well of a 96-well flat plate.
1. The compound (0.01 mmol) prepared in Example 1 was dissolved in 1 mL of anhydrous ethanol. After ultrasonically dissolved, 10 μL of the resultant amino lipid solution in ethanol was taken and mixed with 5 μL of DOPE solution in ethanol (0.01 m), and then to the obtained mixture was added 35 μL of 0.2M sodium acetate buffer (pH 5.6), and 50 μL of liposome solution was prepared by vortex at a constant rotating speed for 30 s. 4 μL was taken from the 50 μL liposome solution and added to 46 μL of 0.02M sodium acetate buffer (pH 5.6), and the final liposome solution was formed by vortex at a constant rotating speed for 30 s. 5 μL was taken from the final liposome solution and mixed with 75 ng plasmid DNA (psin-EGFP-IRES-Puro, Clontech) dissolved in 5 μL of 0.02 M sodium acetate buffer, and was allowed to stay at room temperature for 30 min to form a lipid/DNA transfection complex.
2. 10 μL of the lipid/DNA transfection complex was incubated at room temperature for 30 min, followed by addition of 90 μL of fresh resuspended cells (3-5×10^4 cells) and mixing with a pipette. 100 μL of cells+lipid/DNA complex was transferred to separate wells of a 96-well culture plate immediately, and placed in an incubator containing 5% CO2 at 37° C.
3. Hoechst33258 (Invitrogen) was added at a final concentration of 0.2 μg/mL to the cells 20 to 24 hours after initial cell transfection, and cultured in darkness at 37° C. for 15 min. Afterwards, the cells were washed once with a PBS solution, and then added with medium for culture for 20 to 24 h.
4. The cells were placed in a high-throughput confocal microscope (Molecular Devices ImageXpress), and four visual fields of the image of the cells were captured for each well, and images at three laser wavelengths were captured for each sample: bright field images of cells (FIG. 2(a) and FIG. 2(b)), Hoechst-staining images showing total nuclei (FIG. 2(c) and FIG. 2(d)) and GFP images showing success in transfection with the plasmid DNA and the expression of GFP (FIG. 2(e) and FIG. 2(f)). MetaXpress software was used to separately count the cells in the Hoechst-staining images and GFP images, and then the number of cells expressing GFP was divided by the total number of nuclei to give the absolute cell transfection efficiency. The absolute transfection efficiency was calculated as follows: […]

Row | SMILES | Absolute DNA transfection efficiency in HEK293 cells [%]
1 | CCCCCCCCCCCCN(CCCCCCCCCCCC)c1nc(NCCCCCCCCCCC)nc(NCCN(CC)CC)n1 [Compound N112N12D7] | 0.4

Same assay, conditions: amino lipid/DOPE liposome with 75 ng plasmid DNA (psin-EGFP-IRES-Puro); number of GFP-expressing cells divided by total nuclei (Hoechst)

Row | SMILES | Absolute DNA transfection efficiency in HEK293 cells [%]
2 | CCCCCCCCCCCCSc1nc(NCCCCCCCC)nc(NCCCN(C)C)n1 [S12N8 D6] | 43.1
3 | CCCCCCCCCCCNc1nc(NCCN(C)C)nc(SCCCCCCCCC)n1 [S9N11 D1] | 35.3
4 | CCCCCCCCCCCCCCCCCCSc1nc(NCCCCCCCC)nc(NCCN(CC)CC)n1 [S18N8 D7] | 6.7
5 | CCCCCCCCCCCCCCCCNc1nc(NCCCN2CCN(C)CC2)nc(SCCCCCCCC)n1 [S8N16 D9] | 9.7
6 | CCCCCCCNc1nc(NCCCN(C)C)nc(SCCCCCCC)n1 [S7N7 D6] | 33.5
7 | CCCCCCCCCSc1nc(NCCCCCC)nc(NCCN2CCOCC2)n1 [S9N6 D2] | 2.1
8 | CCCCCCCCCCCCCCCCSc1nc(NCCCCCCCC)nc(NCCN2CCN(C)CC2)n1 [S16N8 D5] | 6.7
9 | CCCCCCCCCCCCCCCCCCSc1nc(NCCCCCCCCCCCCCCCC)nc(NCCCN2CCN(C)CC2)n1 [S18N16 D9] | 0.0
10 | CCCCCCCCCSc1nc(NCCN(C)C)nc(SCCCCCC)n1 [S6S9 D1] | 2.6
11 | CCCCCCCCCCCCCCCSc1nc(NCCCCCCC)nc(NCCN2CCOCC2)n1 [S15N7 D2] | 23.0
12 | CCCCCCCCCCCCN(CCCCCCCCCCCC)c1nc(NCCN2CCCCC2)nc(SCCCCCCCCC)n1 [S9^2N12 D4] | 0.0
13 | CCCCCCCCCCCCSc1nc(NCCCCCCCCCCC)nc(NCCN2CCCCC2)n1 [S12N11 D4] | 1.0
14 | CCCCCCCCCSc1nc(NCCN2CCOCC2)nc(SCCCCCCC)n1 [S7S9 D2] | 28.8
15 | CCCCCCCCCCCCN(CCCCCCCCCCCC)c1nc(NCCN2CCOCC2)nc(SCCCCCCCCCCC)n1 [S11^2N12 D2] | 0.0
16 | CCCCCCCSc1nc(NCCCCCC)nc(NCCN2CCCC2)n1 [S7N6 D3] | 34.7
17 | CCCCCCCCCCCCCNc1nc(NCCCN2CCOCC2)nc(SCCCCCCCC)n1 [S8N13 D8] | 13.3
18 | CCCCCCCCCCCCCCCCSc1nc(NCCCCCCC)nc(NCCCN(C)C)n1 [S16N7 D6] | 12.9
19 | CCCCCCCCCCCCSc1nc(NCCCCCCCCC)nc(NCCCN(C)C)n1 [S12N9 D6] | 37.0
20 | CCCCCCCCCCCCCCCCCCSc1nc(NCCCCCCCCCCC)nc(NCCN2CCCCC2)n1 [S18N11 D4] | 10.1
21 | CCCCCCCCSc1nc(NCCCCCC)nc(NCCN2CCCC2)n1 [S8N6 D3] | 3.2

Row | SMILES | Absolute DNA transfection efficiency in HEK293 cells [%]
22 | CCCCCCCCCCSc1nc(NCCCCCCC)nc(NCCN2CCOCC2)n1 [S10N7 D2] | 2.4
23 | CCCCCCCCCCCCCCSc1nc(NCCCCCCC)nc(NCC2CCN(C)CC2)n1 [S14N7 D10] | 34.6
24 | CCCCCCCCNc1nc(NCCCN(C)C)nc(SCCCCCCCC)n1 [S8N8 D6] | 8.7
25 | CCCCCCCCCNc1nc(NCCCN2CCN(C)CC2)nc(SCCCCCCCC)n1 [S8N9 D9] | 32.1
26 | CCCCCCCCCSc1nc(NCCCCCCCC)nc(NCCN2CCOCC2)n1 [S9N8 D2] | 13.9
27 | CCCCCCCCCCCCCCSc1nc(NCCCCCCCCCCCCC)nc(NCCN2CCCCC2)n1 [S14N13 D4] | 3.9
28 | CCCCCCCCCCCCSc1nc(NCCN(CC)CC)nc(SCCCCCCC)n1 [S7S12 D7] | 7.1
29 | CCCCCCCCCCCCCCCCCCSc1nc(NCCCCCC)nc(NCCN2CCCCC2)n1 [S18N6 D4] | 7.2
30 | CCCCCCCCCSc1nc(NCCCN2CCOCC2)nc(SCCCCCC)n1 [S6S9 D8] | 2.0
31 | CCCCCCCCNc1nc(NCCN2CCOCC2)nc(SCCCCCCCC)n1 [S8N8 D2] | 1.5
32 | CCCCCCCCCNc1nc(NCCCN2CCOCC2)nc(SCCCCCCCC)n1 [S8N9 D8] | 14.8
33 | CCCCCCCCCCCSc1nc(NCCN2CCCC2)nc(SCCCCCC)n1 [S6S11 D3] | 12.4
34 | CCCCCCCCSc1nc(NCCCN2CCN(C)CC2)nc(SCCCCCCC)n1 [S7S8 D9] | 10.2
35 | CCCCCCCCCCCCCCCCSc1nc(NCCN2CCCCC2)nc(N(CCCCCCCCCCCC)CCCCCCCCCCCC)n1 [S16^2N12 D4] | 0.1
36 | CCCCCCCCSc1nc(NCCN2CCCCC2)nc(SCCCCCC)n1 [S6S8 D4] | 1.3
37 | CCCCCCCCCNc1nc(NCCN2CCN(C)CC2)nc(SCCCCCCC)n1 [S7N9 D5] | 22.0
38 | CCCCCCCCCCCCSc1nc(NCCN2CCCCC2)nc(SCCCCCCC)n1 [S7S12 D4] | 9.5
39 | CCCCCCCCCCCCSc1nc(NCCCCCCCCC)nc(NCCN2CCCC2)n1 [S12N9 D3] | 7.0
40 | CCCCCCCCNc1nc(NCC2CCN(C)CC2)nc(SCCCCCC)n1 [S6N8 D10] | 0.4
41 | CCCCCCCCCCSc1nc(NCCN2CCOCC2)nc(SCCCCCCCC)n1 [S8S10 D2] | 18.8

Row | SMILES | Absolute DNA transfection efficiency in HEK293 cells [%]
42 | CCCCCCCCCCCCCCCCCCNc1nc(NCCN2CCN(C)CC2)nc(SCCCCCC)n1 [S6N18 D5] | 15.4
43 | CCCCCCCCCCCCCCCCCCSc1nc(NCCCCCCCCCCCC)nc(NCCCN(C)C)n1 [S18N12 D6] | 0.5
44 | CCCCCCCCCCCNc1nc(NCCN2CCN(C)CC2)nc(SCCCCCC)n1 [S6N11 D5] | 17.5
45 | CCCCCCCCCCSc1nc(NCC2CCN(C)CC2)nc(SCCCCCCCC)n1 [S8S10 D10] | 26.2
46 | CCCCCCCSc1nc(NCCN2CCCCC2)nc(SCCCCCC)n1 [S6S7 D4] | 2.0
47 | CCCCCCCCCCCSc1nc(NCCN2CCCCC2)nc(SCCCCCCCC)n1 [S8S11 D4] | 8.5
48 | CCCCCCCCCCCCNc1nc(NCCN2CCOCC2)nc(SCCCCCC)n1 [S6N12 D2] | 0.9
49 | CCCCCCCCCCCCNc1nc(NCCN2CCCCC2)nc(SCCCCCCCCCC)n1 [S10N12 D4] | 4.7
50 | CCCCCCCCCCCCCCCCCCNc1nc(NCCN2CCOCC2)nc(SCCCCCCCCCCCCCCCC)n1 [S16N18 D2] | 0.0
51 | CCCCCCCCCCCCCCCCCCNc1nc(NCCN2CCCCC2)nc(SCCCCCCCCCCCCCCC)n1 [S15N18 D4] | 0.4
52 | CCCCCCCCCCCCCCCCNc1nc(NCCN(C)C)nc(SCCCCCCC)n1 [S7N16 D1] | 20.0
53 | CCCCCCCCCCCCCCCSc1nc(NCCCCCCCCCCCC)nc(NCCN2CCCC2)n1 [S15N12 D3] | 11.5
54 | CCCCCCCCCCCCCCCCCCNc1nc(NCCCN2CCN(C)CC2)nc(SCCCCCCCCC)n1 [S9N18 D9] | 15.8
55 | CCCCCCCCCCCCCCCSc1nc(NCCCCCCCCCCCC)nc(NCCN2CCOCC2)n1 [S15N12 D2] | 0.0
56 | CCCCCCCCCCCSc1nc(NCCCCCC)nc(NCCN(C)C)n1 [S11N6 D1] | 33.1
57 | CCCCCCCCCCCCNc1nc(NCCCN2CCOCC2)nc(SCCCCCCCCCCCC)n1 [S12N12 D8] | 0.0
58 | CCCCCCCCCCCCSc1nc(NCCCCCC)nc(NCCN2CCCCC2)n1 [S12N6 D4] | 0.0
59 | CCCCCCCCCCCNc1nc(NCCN(CC)CC)nc(SCCCCCC)n1 [S6N11 D7] | 2.2
60 | CCCCCCCCCCCCCCCNc1nc(NCCN(C)C)nc(SCCCCCCCCCCCCCCC)n1 [S15N15 D1] | 0.6
